Laboratory results as given in patent US20060135574A1, “Novel uses for estrogen beta agonists” (Wyeth, priority 2004, published 2006).

Key:
hippocampal CA1 region = assay: Synaptic plasticity (LTD/LTP) in the hippocampal CA1 region after ovariectomy; type: in vivo, rats; conditions: chronic replacement, injection every 48 hours over 5 weeks
Source text: In Experiment 1, ovariectomy carried out either five (5) days or five (5) weeks before testing impaired the induction of long-term depression (LTD), but not long-term potentiation (LTP). […] The findings are discussed with reference to (1) the contribution of Ca^2+ regulated synaptic signaling pathways in the CA1 region to estradiol modulation of LTP and LTD and (2) the potential functional significance of ovariectomy-induced changes in synaptic plasticity for learning and memory processes. […] Restoration of impaired synaptic plasticity of ovariectomized female rats following estrogen treatment can be evaluated by the protocol used by Day and Good, January 2005, Neurobiol Learn Mem., 83(1): 13-21.

[1] = test system: young men diagnosed with severe schizophrenia; conditions: 33 young men, small doses for two weeks; cited from earlier work
Male C56/BL6 mice = assay: Apomorphine induced climbing (AIC) in pretreated male mice; type: in vivo; conditions: for attenuation / blockade of apomorphine induced climbing (AIC): male mice pretreated for 3 consecutive days, estradiol benzoate 0.1, 0.3 and 1 mg/kg, at 24 and 48 hours
Source text: Patients can be evaluated for cognitive diseases or disorders by any of the tests known in the art. Preclinically, animals can be evaluated for blockade/attenuation of symptoms associated with schizophrenia. Positive symptoms in animal models of schizophrenia can be evaluated by measuring changes in the overall level of activity of dopamine (DA) activity with concomitant parallel changes in locomotor activity (Depoortere R et al., 2003 Neuropsychopharmacology 28(11):1889-902), D-amphetamine (AMPH) and phencyclidine (PCP) via induction of model psychosis or locomotor hyperactivity (Freed W J et al., 1984 Neuropharmacology 23(2A):175-81; Sams-Dodd, F. 1998 Neuropsychopharmacology 19(1): 18-25). For example, Depoortere et al. have described tests for evaluating locomotor activity, catalepsy, climbing and stereotypy, which relate to positive symptomology and side effect profile, by characterizing compounds with typical and atypical antipsychotic efficacy (2003). Attenuation in apomorphine-induced climbing, stereotypy and catalepsy (AIC) can be evaluated as described by Fung Y K et al. 1986 Pharmacol Biochem Behav. 1986 24(1):139-41 and Fung, et aL, 1987 Steroids 49(4-5):287-94. Additionally, negative symptoms of schizophrenia can be evaluated by measuring social interaction under the influence of NMDA antagonists such as PCP (Sams-Dodd F 1998).
Male C56/BL6 mice were pretreated with estradiol benzoate 0.1, 0.3 and 1 mg/kg and an estrogen beta agonist, 7-bromo-2-(4-hydroxyphenyl)-1,3-benzoxazol-5-ol for three (3) consecutive days, and then evaluated for locomotor activity, catalepsy, AIC and stereotypy. Estradiol benzoate attenuated AIC at 24 and 48 hours (approximately 55%), while the estrogen beta agonist, 7-bromo-2-(4-hydroxyphenyl)-1,3-benzoxazol-5-ol, outperformed estradiol benzoate by inducing a sixty percent (60%) blockade of AIC in the male mice.

[2] = test system: ovariectomized female rats; assay: Working memory, radial arm maze win-shift task; type: in vivo; conditions: OVX rats; estradiol benzoate 0.02 mg/kg s.c. in oil for 2 days; ERβ and ERα agonists 10 mg/kg for 6 days
Source text: Cognitive symptoms of memory, including those from Alzheimer's disease and stroke, can be evaluated by such models as the Fear Conditioning Paradigm (Gould T J et al., 2002 Behav Pharmacol. 13(4):287-94; Hamm A O et al., 2003 Brain 126(Pt 2):267-75) and Radial Arm Test (Aggleton J P et al., 1996 Behav Brain Res. 19(2):133-46), while spatial reference memory and learning can be evaluated in the Morris watermaze (Bontempi B et al., 1996 Eur J Neurosci. 8(11):2348-60). Additionally, memory and hippocampal hypo-functioning can be assessed by measuring the restoration of synaptic plasticity in ovariectomized (OVX) female rats. (Day and Good, 2005 Jan., Neurobiol Learn Mem., 83(1): 13-21). Further, changes in attention function because of schizophrenia can be examined by the five (5) Choice Serial Reaction Time Test (5CSRT) (see Muir J L, et al., 1995 Psychopharmacology (Berl) 118(1): 82-92; Robbins et al., 1998 Ann N Y Acad Sci. 846:222-37).
Female rats were habituated to a water deprivation schedule and to the radial maze for at least one week prior to acquisition. The rats were ovariectomized six to eight (6-8) weeks before testing. Subjects were then treated with either estradiol benzoate (0.02 mg/kg), the ERfl agonist, 7-bromo-2-(4-hydroxyphenyl)-1,3-benzoxazol-5-ol, or an ERα agonist. […]

male Long Evans rats = assay: Novel Object Recognition; type: in vivo; conditions: 0.5 mg/kg injected 30 minutes prior to T1; Trial 2 48 hours after Day 2
Protocol: (§1) Novel Object Recognition is impaired in several disorders of memory including Alzheimer's disease, schizophrenia, mild cognitive impairment (MCI), stroke, amongst others. In rodents, […] is used extensively to examine the effects of drugs on this form of memory. An ERβ agonist, 7-bromo-2-(4-hydroxyphenyl)-1,3-benzoxazol-5-ol, was tested on this form of memory. In the habituation stage (Day 1), the rats, male Long Evans are habituated for 10 minutes each to an arena that contains 2 identical objects (YY). On trial 1 (Day 2), the arena is set up with a different set of identical objects (e.g., BB) and the animals are allowed to spend 5 minutes sniffing each objects. Thirty (30) minutes prior to T1, animals were injected with 7-bromo-2-(4-hydroxyphenyl)-1,3-benzoxazol-5-ol.

aged rats (15 months) = assay: Mild cognitive impairment model: CREB levels and Novel Object Recognition in aged rats; type: in vivo; conditions: single injection 1 mg/kg 30 minutes prior to testing, compared to young 3 month old rats
Protocol: as §1
cAMP-response-element-binding protein (CREB) is expressed in all cells in the brain and is a member of a family of proteins that function as transcription factors. […] Aged animals show marked decreases in CREB activation and memory; and this decline in cognition in aged rats is a useful model of mild cognitive impairment seen in humans. As such, an ERβ agonist, 7-bromo-2-(4-hydroxyphenyl)-1,3-benzoxazol-5-ol, was tested on this form of recognition memory. […]

βERKO female mice = assay: Phencyclidine (PCP) induced locomotor activity (LMA) during PCP withdrawal; type: in vivo; conditions: 0.3 mg/kg on day 5, sub-effective PCP dose after 4 day withdrawal
Protocol: Animals were treated for five (5) days with PCP. Following this period, the animals were given a 4 day withdrawal period. One group received 0.3mg/kg estradiol benzoate on day 5. […] Thus, the classic estrogen agonist, estradiol benzoate, effectively blocks the effects of PCP on LMA, with other ERβ agonists likely to behave similarly.

male mice = conditions: cited from earlier work

Structure (SMILES)	induction of LTP (hippocampal CA1 region)	magnitude of paired-pulse induced LTD in the CA1 region (hippocampal CA1 region)	hallucinations and delusions [1]	blockade of AIC compared with estrogen treatment (FIG. 1) (Male C56/BL6 mice; 3 days of treatment)	attenuation / blockade of apomorphine induced climbing (AIC) (Male C56/BL6 mice)	working memory in the radial arm maze [2]	time investigating the novel object versus the familiar object in Trial 2 (male Long Evans rats)	CREB levels (aged rats (15 months))	memory in the NOR method (aged rats (15 months))	effect on PCP induced LMA (βERKO female mice)	effect on apomorphine induced climbing (male mice)
C[C@]12CC[C@@H]3c4ccc(O)cc4CC[C@H]3[C@@H]1CC[C@@H]2O [17β-estradiol]	no effect on the induction of LTP	enhanced the magnitude of paired-pulse induced LTD	significant decline in hallucinations and delusions	–	–	–	–	–	–	–	–
Oc1ccc(-c2nc3cc(O)cc(Br)c3o2)cc1 [7-bromo-2-(4-hydroxyphenyl)-1,3-benzoxazol-5-ol]	–	–	–	more profound blockade of AIC	60%	improved working memory	significantly improved	restored the CREB levels	increased memory	–	–
C[C@]12CC[C@@H]3c4ccc(OC(=O)c5ccccc5)cc4CC[C@H]3[C@@H]1CC[C@@H]2O [estradiol benzoate]	–	–	–	–	approximately 55%	improved working memory	–	–	–	successfully blocked the effect of PCP induced LMA	attenuate apomorphine induced climbing
